Counter-ions that a name gives are not always drawn.
How the values were obtained:
[1] = test system: LPS-stimulated peritoneal macrophages of C57bl/6j mice; assay: Inhibition of LPS-induced NO synthesis (nitrite accumulation, Griess reagent) in peritoneal macrophages; assay type: cell-based, mouse; conditions: 100 μM; for inhibition at 100 µM: Mus musculus, Peritoneal macrophage, 22 h, read-out: Inhibition of NO Synthesis vs. LPS Control; for inhibition at 100 µM / Inhibition of NO Synthesis vs. LPS Control: m ± SD
Protocol: (§1) Peritoneal macrophages (PM) were isolated from the peritoneal exudate of 30 male C57bl/6j mice. To accumulate PM, 1 mL of 3% peptone solution was injected intraperitoneally. After 3 days, the mice were euthanized by cervical dislocation. Cells of peritoneal exudate were obtained by aseptic washing of the abdominal cavity with 5 mL of sterile Hanks’s solution (+4–6 °C) without calcium and magnesium ions. The total number and viability of cells were assessed in a Goryaev counting chamber (Russia) with a 0.4% trypan blue staining (Sigma-Aldrich, St. Louis, MO, USA). The cell concentration was adjusted to 1.0 × 10^6 cells/mL in DMEM (Gibco) supplemented with 2 mM L-glutamine (Gibco, Waltham, MA, USA), 10% heat-inactivated fetal bovine serum (BioClot, Bavaria, Germany), 100 U/mL penicillin, and […] streptomycin (Gibco) and plated 200 μL/well in 96-well transparent plates (SPL Life Sciences Co., Ltd., Pocheon-si, Korea). After 2 h at 37 °C in a humidified atmosphere with 5% CO2, the wells were washed to remove non-adherent cells. After 24 h of incubation, 20 μL of the supernatants were substituted with 20 μL of solutions of test compounds, followed by E. coli O127:B8 LPS (100 ng/mL final concentration) after 30 min. The experiments were run in 3 independent replicates.
The accumulation of the nitrite anion (a stable end product of NO decomposition produced by iNOS) in supernatants was determined using a standard Griess reagent. Briefly, 50 μL of supernatants were collected 22 h after incubation of PM, and the test and control compounds were mixed with 50 μL of 1% […] in 2.5% H3PO4 and 50 μL of 0.1% N-(1-naphthyl) ethylenediamine in 2.5% H3PO4. After incubation at 23 °C for 10 min in an orbital shaker, the optical density was determined at a wavelength of 550 nm with a microplate reader Infinite M200 PRO (Tecan, Grödig, Austria).

[2] = test system: LPS-stimulated peritoneal macrophages of C57bl/6j mice; assay: Cell viability of LPS-stimulated macrophages, MTT test; assay type: cell-based; conditions: 100 μM
Protocol: as §1
The activity of lactate dehydrogenase (LDH) in a cell culture medium served as a marker of membrane permeability and cell death. Aliquotes of supernatants were taken after 24 h of inoculation with test compounds, mixed with 250 μL of […] NADH solution in 54 mM phosphate-buffered saline (pH 7.5). Then, 25 μL of a 6.48 mM pyruvate solution was added to the mixture. The optical density was followed at a wavelength of 340 nm for 20 min. The MTT-test was performed 24 h after incubations of cells with tested compounds. Briefly, 20 μL of MTT solution was added to each well, incubated at 37 °C in a humidified atmosphere containing 5% CO2 for 4 h. The culture medium was removed, the cells were lysed, and formazan crystals were dissolved in 150 μL DMSO. The plates were shaken at room temperature for 10 min, and the optical density was measured in a microplate reader Infinite M200 PRO (Tecan, Grödig, Austria) at a wavelength of 565 nm.

Row | Compound | inhibition at 100 µM [1] [%] | Cell Viability vs. LPS Control, MTT Test ([2]; male, C57bl/6j, mouse, 24 h) [%] | Inhibition of nitric oxide synthesis (in words) [1] | Inhibition of NO Synthesis vs. LPS Control [1] [%] | Cell Viability vs. LPS Control, MTT Test ([2]; m ± SD) [%]
1 | Cc1nc2nnnn2c(NC(C)C)c1[N+](=O)[O-] [Compound 9a, N-Isopropyl-5-methyl-6-nitrotetrazolo[1,5-a]pyrimidin-7-amine] | 47.7 ± 6.98 | 73.47 ± 12.07 | – | – | –
2 | Cc1nc2nnnn2c(NCCO)c1[N+](=O)[O-] [Compound 9c, 2-[(5-Methyl-6-nitrotetrazolo[1,5-a]pyrimidin-7-yl)-amino]ethanol] | 54.2 ± 11.5 | 109.0 ± 2.00 | – | – | –
3 | C#CCSc1nc2ncc([N+](=O)[O-])c(NCCc3ccc(Cl)cc3)n2n1 [Compound 10f, N-(4-Chlorophenethyl)-6-nitro-2-(prop-2-yn-1-yl-sulfanyl)[1,2,4]triazolo[1,5-a]pyrimidin-7-amine] | 50.6 ± 1.27 | 38.37 ± 6.89 | – | – | –
4 | Cc1nc2nnnn2c(NCCc2ccc(Cl)cc2)c1[N+](=O)[O-] [Compound 9f, N-[2-(4-Chlorophenyl)ethyl]-5-methyl-6-nitrotetrazolo-[1,5-a]pyrimidin-7-amine] | 35.8 ± 4.45 | 102.67 ± 6.35 | – | – | –
5 | Cc1[nH]c2nc(-c3ccc([N+](=O)[O-])o3)nn2c(=O)c1[N+](=O)[O-] [Compound 13, 2-(5-Nitrofur-2-yl)-5-methyl-6-nitro-1,2,4-triazolo[1,5-a]pyrimidin-7-one aminoguanidinium salt] | – | – | comparable to that of the tetrazolopyrimidine series | 58.97 ± 7.07 | 96.97 ± 7.18
6 | Cc1nc2nnnn2c(NCCCO)c1[N+](=O)[O-] [Compound 9d, 3-[(5-Methyl-6-nitrotetrazolo[1,5-a]pyrimidin-7-yl)-amino]propanol] | 40.3 ± 5.14 | 116.6 ± 8.97 | – | – | –
7 | Cc1[nH]c2nc(-c3ccc([N+](=O)[O-])o3)nn2c(=O)c1[N+](=O)[O-] [Compound 14, 2-(5-Nitrofur-2-yl)-5-methyl-6-nitro-1,2,4-triazolo[1,5-a]pyrimidin-7-one guanidinium salt] | – | – | did not demonstrate inhibition of nitric oxide synthesis | 16.09 ± 5.78 | 111.95 ± 8.67
8 | Cc1nc2nnnn2c(NCC(O)CO)c1[N+](=O)[O-] (stereo not shown) [Compound 9e, 3-[(5-Methyl-6-nitrotetrazolo[1,5-a]pyrimidin-7-yl)-amino]propane-1,2-diol] | 21.5 ± 2.74 | 94.98 ± 12.48 | – | – | –
9 | Cc1nc2nnnn2c(NC(C)(C)C)c1[N+](=O)[O-] [Compound 9b, N-Tert-Butyl-5-methyl-6-nitrotetrazolo[1,5-a]pyrimidin-7-amine] | 37 ± 3.25 | 104.9 ± 5.87 | – | – | –
10 | C#CCSc1nc2ncc([N+](=O)[O-])c(NCCc3ccc(O)cc3)n2n1 [Compound 10g, 4-{2-[(6-Nitro-2-(prop-2-yn-1-ylsulfanyl)[1,2,4]triazolo[1,5-a]pyrimidin-7-yl)amino]ethyl}phenol] | 28.5 ± 3.21 | 30.9 ± 7.7 | – | – | –

From article PMC9146423, “Discovery of Nitro-azolo[1,5-a]pyrimidines with Anti-Inflammatory and Protective Activity against LPS-Induced Acute Lung Injury” (Pharmaceuticals, 2022)
